The compounds below were run against T1, UDP-3-O-acyl-N-acetylglucosamine deacetylase (Pseudomonas aeruginosa (strain ATCC 15692 / PAO1 / 1C / PRS 101 / LMG12228), UniProt P47205) (assay: At the end of 1 hour, 5 ul of 1N HCl was added to stop the enzyme reaction; the plates were centrifuged, and then processed with the BioTrove Rapidfire HTMS Mass Spectrometry System.).
T1 sequence (P47205 whole entry): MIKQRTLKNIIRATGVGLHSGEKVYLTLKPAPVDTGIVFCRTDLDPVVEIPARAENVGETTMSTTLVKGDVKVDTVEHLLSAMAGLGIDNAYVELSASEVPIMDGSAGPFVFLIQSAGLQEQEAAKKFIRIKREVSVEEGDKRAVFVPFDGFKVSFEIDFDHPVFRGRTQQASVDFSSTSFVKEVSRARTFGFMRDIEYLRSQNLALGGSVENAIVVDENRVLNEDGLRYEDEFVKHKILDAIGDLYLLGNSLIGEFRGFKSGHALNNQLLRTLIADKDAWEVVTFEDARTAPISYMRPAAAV
Compound CC(CCc1ccc(OCc2nc(-c3cccc(F)c3)no2)cc1)(C(=O)NO)S(C)(=O)=O (configuration not stated) has an IC50 of 3.81 nM. Cc1cc(C)cc(COc2ccc(CCC(C)(C(=O)NO)S(C)(=O)=O)cc2)c1 (configuration not stated) showed an IC50 of 4.5 nM. For CC(CCc1ccc(OCC2CCC2)cc1)(C(=O)NO)S(C)(=O)=O (configuration not stated), the IC50 was 3.28 nM. Work on CC(CCc1ccc(OCc2cc(C#N)ccc2F)cc1)(C(=O)NO)S(C)(=O)=O (configuration not stated) yielded an IC50 of 1.36 nM. Compound CC(CCc1ccc(OCc2cccc(Cl)c2)cc1)(C(=O)NO)S(C)(=O)=O (configuration not stated) has an IC50 of 1.32 nM. With CC(CCc1ccc(OCc2nc(C3CCCC3)no2)cc1)(C(=O)NO)S(C)(=O)=O (configuration not stated) the IC50 was 7.2 nM. CCC(CC)COc1ccc(CCC(C)(C(=O)NO)S(C)(=O)=O)cc1 (configuration not stated) was tested, and the IC50 was 1.29 nM. In the case of CC(CCc1ccc(OC2CCCCC2)cc1)(C(=O)NO)S(C)(=O)=O (configuration not stated), the IC50 is reported as 0.753 nM. With CC(CCc1ccc(OCCCOCc2ccccc2)cc1)(C(=O)NO)S(C)(=O)=O (configuration not stated) the IC50 was 21.1 nM. Cc1ccc(C)c(COc2ccc(CCC(C)(C(=O)NO)S(C)(=O)=O)cc2)c1 (configuration not stated) was tested, and the IC50 was 4.25 nM. In the case of CC(CCc1ccc(OCc2nc3ccccc3s2)cc1)(C(=O)NO)S(C)(=O)=O (configuration not stated), the IC50 is reported as 0.651 nM. Work on Cc1cccc(COc2ccc(CCC(C)(C(=O)NO)S(C)(=O)=O)cc2)c1F (configuration not stated) yielded an IC50 of 0.525 nM. In the case of CC(CCc1ccc(OCCc2ccncc2)cc1)(C(=O)NO)S(C)(=O)=O (configuration not stated), the IC50 is reported as 13.7 nM. CC(CCc1ccc(OCCC2CCCC2)cc1)(C(=O)NO)S(C)(=O)=O (configuration not stated) gave an IC50 of 1.27 nM. For CC(CCc1ccc(OCc2cccc(OC(F)(F)F)c2)cc1)(C(=O)NO)S(C)(=O)=O (configuration not stated), the IC50 was 2.71 nM. For CCC(c1ccccc1)c1noc(COc2ccc(CCC(C)(C(=O)NO)S(C)(=O)=O)cc2)n1 (configuration not stated), the IC50 was 20.5 nM. Compound COc1ccc(F)c(-c2noc(COc3ccc(CCC(C)(C(=O)NO)S(C)(=O)=O)cc3)n2)c1 (configuration not stated) has an IC50 of 6.39 nM. Cc1ccc(COc2ccc(CCC(C)(C(=O)NO)S(C)(=O)=O)cc2)cn1 (configuration not stated) gave an IC50 of 5.96 nM. Cc1ncccc1COc1ccc(CCC(C)(C(=O)NO)S(C)(=O)=O)cc1 (configuration not stated) showed an IC50 of 5.59 nM. In the case of CC(CCc1ccc(OCCOc2ccccc2)cc1)(C(=O)NO)S(C)(=O)=O (configuration not stated), the IC50 is reported as 1.52 nM. Compound CC(CCc1ccc(OCc2ccc(F)cc2C(F)(F)F)cc1)(C(=O)NO)S(C)(=O)=O (configuration not stated) has an IC50 of 2.36 nM. CC(CCc1ccc(OCc2nc(-c3cccc(F)c3F)no2)cc1)(C(=O)NO)S(C)(=O)=O (configuration not stated) was tested, and the IC50 was 5.31 nM. With CC(CCc1ccc(OCCCC2CCCCC2)cc1)(C(=O)NO)S(C)(=O)=O (configuration not stated) the IC50 was 4.56 nM. Work on CC(CCc1ccc(OCCCC2CCCC2)cc1)(C(=O)NO)S(C)(=O)=O (configuration not stated) yielded an IC50 of 2.55 nM. Work on CC(CCc1ccc(OCCCc2ccccc2)cc1)(C(=O)NO)S(C)(=O)=O (configuration not stated) yielded an IC50 of 10.2 nM. CC(CCc1ccc(OCCC2CC2)cc1)(C(=O)NO)S(C)(=O)=O (racemic) showed an IC50 of 1.36 nM. CC(CCc1ccc(OCCc2ccccc2)cc1)(C(=O)NO)S(C)(=O)=O (configuration not stated) was tested, and the IC50 was 4.03 nM. Work on CC(CCc1ccc(OCc2nc(Cc3cc(F)ccc3F)no2)cc1)(C(=O)NO)S(C)(=O)=O (configuration not stated) yielded an IC50 of 0.714 nM. Work on CC(CCc1ccc(OCC2CC2)cc1)(C(=O)NO)S(C)(=O)=O (configuration not stated) yielded an IC50 of 10.5 nM. Compound Cc1ccc(COc2ccc(CCC(C)(C(=O)NO)S(C)(=O)=O)cc2)cc1 (configuration not stated) has an IC50 of 1.02 nM. CC(CCc1ccc(OCCC2CCCCC2)cc1)(C(=O)NO)S(C)(=O)=O (configuration not stated) was tested, and the IC50 was 2.79 nM. For CC(CCc1ccc(OCc2cccc(F)c2)cc1)(C(=O)NO)S(C)(=O)=O (configuration not stated), the IC50 was 0.834 nM. Work on CCCCCCOc1ccc(CCC(C)(C(=O)NO)S(C)(=O)=O)cc1 (configuration not stated) yielded an IC50 of 6.31 nM. Compound CC(CCc1ccc(OCc2nc(-c3cc(F)cc(F)c3)no2)cc1)(C(=O)NO)S(C)(=O)=O (configuration not stated) has an IC50 of 5.81 nM. CC(C)CCCOc1ccc(CCC(C)(C(=O)NO)S(C)(=O)=O)cc1 (configuration not stated) gave an IC50 of 3.22 nM. CC(CCc1ccc(OCc2ccc3ccccc3n2)cc1)(C(=O)NO)S(C)(=O)=O (configuration not stated) showed an IC50 of 13.9 nM. For Cc1ccc(-c2noc(COc3ccc(CCC(C)(C(=O)NO)S(C)(=O)=O)cc3)n2)cc1 (configuration not stated), the IC50 was 3.48 nM.

— ChEMBL document CHEMBL3638721, “C-linked hydroxamic acid derivatives useful as antibacterial agents” (2014)
